In patent US7235547B2, “Pharmaceutical composition comprising an AChE inhibitor and a mGluR2 antagonist” (priority 2003, dated 2007):
Where a name gives a salt, the structure may show the parent alone.

Tested on: scopolamine-induced working memory deficit
Assay: scopolamine-induced working memory deficit in the delayed match to position (DMTP) task in rats
Type: in vivo, Male Lister Hooded rats
Details: for effect on the scopolamine deficit in DMTP task (percent correct responses): combination: Compound 23 1 mg/kg p.o. 180 min prior to testing, donepezil hydrochloride 1 mg/kg p.o. 145 min later, scopolamine 0.06 mg/kg s.c. 5 min later
Experimental: Except for during testing, water was available ad libitum at all times. The rats were tested in Med Associates operant chambers, equipped with 2 retractable levers positioned 7.5 cm either side of a central food tray. A single stimulus light (cue light) was positioned above each lever. Aluminum barriers (5.5 cm chamber extension) were fitted within the chamber to separate each lever from the food magazine. The chambers were controlled by Kestrel software (Conclusive Solutions, Harlow, UK) operating on an IBM compatible PC.
Rats were initially trained to lever press for a food reward (45 mg Formula ‘P’ pellet, Noyes, N.H.) on a continuous reinforcement (CRF) schedule with each lever presented singly an equal number of times (total 96 trials). On acquiring this behaviour the animals were next trained to make a matching response. Each trial consisted of a single lever being inserted into the chamber and the illumination of the appropriate stimulus light (sample stage). The rat was required to press the sample lever, which then immediately retracted. […] If the animal pressed the other lever, it was recorded as an incorrect response and was unrewarded. […] The next trial was signalled by illumination of the house light for a 5 s period, after which the sample lever was extended. The number of such trials per session was 96.
Initially, the delay between the sample and choice stage was 1 s after the first magazine nose poke. Once the animals had learned the matching rule (≧90% correct), the delay period was increased to 1, 2 and 4 s (32 trials per delay), up to a final level of 1, 2, 4, 8, 16, 24s. Sixteen trials were run at each delay. […] The parameters measured include % correct (total no. correct/(total no. correct+incorrect)×100) both for the total session and for each delay interval. Percent correct responses at each delay interval were analysed using an analysis of variance (ANOVA) with repeated measures on Treatment and Delay. Total percent correct responses were analysed using an ANOVA with repeated measures on Treatment. Post hoc tests were conducted by Newman-Keuls test. Statistical significance was accepted at P<0.05.
The experiment was conducted using a repeated measures design with each animal receiving each treatment according to a counterbalanced design. Animals were run 5 days/-week, with drug treatment on 2 test days per week, separated by at least 2 days. […] Scopolamine hydrobromide was dissolved in saline solution and was administered s.c. using an injection volume of 1 ml/kg.

Row | SMILES | effect on the scopolamine deficit in DMTP task (percent correct responses) | total correct responses collapsed over the delay intervals (scopolamine 0.06 mg/kg s.c.) | percent correct responses (per delay interval) (scopolamine 0.06 mg/kg s.c., delays 1-24 s)
1 | Cc1cc(-c2cccc(C3=Nc4cc(C)c(C(F)(F)F)cc4NC(=O)C3)c2)cc(C)n1 [Compound 23, 4-[3-(2,6-dimethyl-pyridin-4-yl)-phenyl]-7-methyl-8-trifluoromethyl-1,3-dihydro benzo[b][1,4]diazepin-2-one] | reversal of the scopolamine deficit |  | 
2 | CN1[C@@H]2C[C@@H](OC(=O)[C@H](CO)c3ccccc3)C[C@H]1[C@@H]1O[C@@H]12 [Scopolamine, Scopolamine hydrobromide] |  | significant reduction | significant delay-dependent reduction
3 | COc1cc2c(cc1OC)C(=O)C(CC1CCN(Cc3ccccc3)CC1)C2 (stereo not shown) [donepezil hydrochloride] | reversal of the scopolamine deficit |  | 
